From patent US20230372288A1, “Application of Aristolochic Acid IVa in Preparation of Antihistamine or Drug for Treating Pneumonia” (priority 2022, published 2023) come the findings set out here.

Series [1] deals with histamine-induced increase in mouse vascular permeability. Kind of series: Histamine-induced increase in auricular vascular permeability, EB exudation test. To be noted: for Ear blue staining compared with histamine model group: observed within 30 min after histamine; for Amount of EB exudation: histamine 5 mg/kg tail vein on 4th day, both ears, n = 10, mean ± SD; for EB exudation reduction rate: histamine 5 mg/kg, vs histamine group. In kind it is in vivo, ICR mice. On the procedure: ICR mice are divided into 6 groups, including a negative control group (control): physiological saline is administered by gavage for 3 days, and on the 4th day, the physiological saline is administered by tail vein injection; a histamine model group (histamine): the physiological saline is administered by the gavage for 3 days, and 5 mg/kg of the histamine is administered by the tail vein injection on the 4th day; an AA-IVa low-dose treatment group (histamine+AA-IVa/L): 5 mg/kg of AA-IVa is administered by the gavage for 3 days, and 5 mg/kg of the histamine is administered by the tail vein injection on the 4th day; and an AA-IVa high-dose treatment group (histamine+AA-IVa/H): 10 mg/kg of AA-IVa is administered by the gavage for 3 days, and 5 mg/kg of the histamine is administered by the tail vein injection on the 4th day.
AA-Iva: 0.5 wt % CMC-Na is used for preparation, and the concentration is 0.5 mg/ml and 0.25 mg/ml respectively. Histamine: 0.5 mg/ml of histamine solution is prepared with the physiological saline.
4.3 Modeling Method • (1) Principle: the histamine may cause an increase in permeability of capillary and venule walls, and plasma leaks into tissues, leading to local tissue edema. EB is a commonly used indicator for detecting the vascular permeability. After intravenous injection of mixed solution of histamine and EB into the mice, the increase in the vascular permeability caused by the histamine may be observed in a mouse auricle (the auricle is stained blue). • (2) Method for establishing model of increased auricular vascular permeability induced by histamine: after the histamine (0.5 mg/ml) is mixed with 0.8% EB solution at a ratio of 1:1 (volume), the tail vein injection is performed at 20 ml/kg of a volume according to the weight of each mouse. The auricular blue staining condition of the mouse is observed within 30 min after the histamine is administered, and a picture of the auricular blue staining is taken. • (3) Auricular vascular permeability test (EB exudation test): after the above auricular blue staining is observed and photographed, both ears are cut, and cut into pieces. After being soaked in 2 ml of formamide at a room temperature for 48 h, it is filtered with a 200-mesh stainless steel sieve. A filtrate is taken, and the absorbance (A) is measured at 610 nm. According to an EB standard curve, the amount (μg) of EB dye exudation is calculated.
EB exudation reduction rate (%)=(average value of EB exudation in histamine group−average value of EB exudation in administration group)/average value of EB exudation in histamine group×100%.
Statistical analysis is performed by using SPSS 20.0 software. The variance analysis is performed on the amount of EB exudation from the auricle tissue by using an ANOVA program. Data is expressed as mean±standard deviation (x±S), the histamine model group is compared with the control group, and each administration group is compared with the histamine model group, P<0.05 is considered as a significant difference.
ICR mice are divided into 4 groups, including a negative control group (control) (1): physiological saline is administered by gavage for 3 days, and on the 4th day, the physiological saline is administered by tail vein injection; a histamine model group (histamine) (2): the physiological saline is administered by the gavage for 3 days, and on the 4th day, 5 mg/kg of the histamine is administered by the tail vein injection; an AA-I treatment group (histamine+AA-I) (3): 10 mg/kg of AA-I is administered by the gavage for 3 days, and on the 4th day, 5 mg/kg of the histamine is administered by the tail vein injection; and an AA-II treatment group (histamine+AA-II) (4): 10 mg/kg of AA-II is administered by the gavage for 3 days, and on the 4th day, 5 mg/kg of the histamine is administered by the tail vein injection.
Preparation of AA-I and AA-II: 0.5 wt % CMC-Na is used to prepare AA-I and AA-II into 0.5 mg/ml respectively.

The test system of series [2] is histamine-induced pneumonia (lung tissue inflammatory exudation). The series can be described thus: Histamine-induced pneumonia, pathological examination of lung tissue. In kind it is in vivo, ICR mice. To be noted: histamine 5 mg/kg, HE pathology. From the text:
1. Experimental Method • (1) Model establishment, animal grouping and administration are the same as Embodiment 1. • (2) Pathological examination of lung tissue: after the mouse is euthanized due to vertebral detachment, it is dissected, and the lung tissue is taken out. The lung tissue is fixed with 10% neutral formalin for standby. After being fully fixed with formaldehyde, the submitted tissue is dehydrated step by step with ethanol, transparent with xylene, embedded with paraffin, and prepared conventionally into 3 μm of a paraffin section. HE, Masson, and PAS staining are used respectively, and the tissue inflammation exudation conditions are examined under an optical microscope (DP71 type, OLYMPUS, magnified by 400 times).
1. Experimental Method • (1) Model establishment, animal grouping and administration are the same as Contrast example 1. • (2) Pathological examination of lung tissue: same as Embodiment 2.

Series [3] has as its system ICR mice. Kind of series: Toxicity test, single gavage, death within 14 days and renal pathology. In kind it is in vivo. The conditions noted are these: 40 mg/kg once by gavage; for Death rate / Number of dead animals: 10 animals, within 14 days; for Renal pathological examination: survived animals after 14 days. Here is the method:
SPF-grade ICR mice are used, 18-22 g, with half male and half female. The animals are sourced from Beijing Vital River Laboratory Animal Technology Co., Ltd. After 1 day of adaptive feeding, the test substance is administered.
The mice are randomly divided into 4 groups: a control group (physiological saline is administered once by gavage) (1); an AA-I group (40 mg/kg of AA-I is administered once by the gavage) (2); an AA-II group (40 mg/kg of AA-II is administered once by the gavage) (3); and an AA-Iva group (40 mg/kg of AA-IVa is administered once by the gavage) (4).
Before the animals are administered by the gavage, it is fasted for 12 h without water deprivation. After being administered by the gavage, the animal death conditions within 14 days are recorded after the gavage administration. Survived animals are dissected, and kidneys are taken for the pathological examination.

The mark [4] stands for this setting: drug 10 mg/kg by gavage for 3 days.
Setting [5] is: drug 5 mg/kg by gavage for 3 days.

Regarding `COc1cccc2c1cc([N+](=O)[O-])c1c(C(=O)O)cc3c(c12)OCO3` [AA-I, Aristolochic Acid I], in series [1] (10 mg/kg by gavage for 3 days), the “Amount of EB exudation compared to histamine model group (in words)” value is recorded as “no significant difference” and the “Ear blue staining compared with histamine model group” value is “no significant difference”. Also, in series [1] (setting [4]), the “Amount of EB exudation” value stood at 1.01 ± 0.28 µg and the “EB exudation reduction rate” value was 14.4%. Further, the “Thickening of alveolar septa and exudation of inflammatory cells in lung tissue compared to model group” value (shortened to “Thickening … compared to model group”) in series [2] (10 mg/kg by gavage for 3 days) is recorded as “no significant difference compared to the histamine model group”. Besides, in series [3], the Death rate was 70%, the “Number of dead animals” value is recorded as 7 and the Renal pathological examination entry was “diffuse tubular necrosis”.
Take `O=C(O)c1cc2c(c3c1c([N+](=O)[O-])cc1ccccc13)OCO2` [AA-II, Aristolochic Acid II]: in series [1] (10 mg/kg by gavage for 3 days), the “Amount of EB exudation compared to histamine model group (in words)” value is “no significant difference” and the “Ear blue staining compared with histamine model group” value was “no significant difference”. For the same compound, in series [1] (setting [4]), the “Amount of EB exudation” value was determined as 1.09 ± 0.34 µg and the “EB exudation reduction rate” value is reported as 7.6%. For the same compound, in series [2] (10 mg/kg by gavage for 3 days), the “Thickening … compared to model group” value is on record as “no significant difference compared to the histamine model group”. For the same compound, in series [3], the Death rate is listed as 10%; the “Number of dead animals” value was 1; the Renal pathological examination result was “patchy tubular necrosis and tubular swelling”.
Take `COc1cc(O)cc2c1cc([N+](=O)[O-])c1c(C(=O)O)cc3c(c12)OCO3` [AA-IVa, aristolochic acid IVa]: the “Amount of EB exudation compared to histamine model group (in words)” value in series [1] (different doses (5 and 10 mg/kg by gavage for 3 days), P<0.001) is on record as “significantly decreased”. In series [1] (different doses (5 and 10 mg/kg by gavage for 3 days)), the “Ear blue staining compared with histamine model group” value is on record as “significantly reduced”. Besides, the “Amount of EB exudation” value in series [1] (setting [5]) came to 0.93 ± 0.20 µg; in series [1] (setting [4]), 0.82 ± 0.25 µg. Besides, the “EB exudation reduction rate” value worked out at 36.7% in series [1] (setting [5]) and 44.2% in series [1] (setting [4]). Besides, the “Thickening … compared to model group” value in series [2] (5 mg/kg by gavage for 3 days) and in series [2] (10 mg/kg by gavage for 3 days) was “significant reduction compared to the model group” each time. The Renal pathological examination entry in series [3] is “no toxic damage”.
